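Values below derive from 48-hour exposures of cells grown in 96-well plates, with endpoints linearly interpolated between the two concentrations bracketing the appropriate inhibition level. TGI: concentration producing complete growth inhibition.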
Legend:
Assay in all cases: DTP human tumour cell line panel, 48 h
[1] = tested on: CCRF-CEM leukemia
[2] = tested on: MDA-MB-435
[3] = tested on: TK-10 renal
[4] = tested on: SF-268 CNS
[5] = tested on: OVCAR-8 ovarian
[6] = tested on: HCC-2998 colon
[7] = tested on: HS 578T breast
[8] = tested on: MDA-MB-231 breast
[9] = tested on: SK-MEL-2 melanoma
[10] = tested on: MALME-3M melanoma
[11] = tested on: OVCAR-5 ovarian
[12] = tested on: SW-620 colon
[13] = tested on: NCI-H226 lung
[14] = tested on: MCF7 breast
[15] = tested on: K-562 leukemia
[16] = tested on: M14 melanoma
[17] = tested on: DU-145 prostate
[18] = tested on: RXF 393 renal
[19] = tested on: HCT-116 colon
[20] = tested on: SK-MEL-5 melanoma
[21] = tested on: BT-549 breast
[22] = tested on: KM12 colon
[23] = tested on: SF-539 CNS
[24] = tested on: NCI-H460 lung
[25] = tested on: OVCAR-3 ovarian
[26] = tested on: HOP-62 NSCLC
[27] = tested on: U251 CNS
[28] = tested on: MDA-N
[29] = tested on: IGROV1 ovarian
[30] = tested on: SR leukemia
[31] = tested on: CAKI-1 renal
[32] = tested on: UACC-62 melanoma
[33] = tested on: A549 NSCLC
[34] = tested on: ACHN renal
[35] = tested on: PC-3 prostate
[36] = tested on: SF-295 CNS
[37] = tested on: LOX IMVI melanoma
[38] = tested on: RPMI-8226 leukemia
[39] = tested on: UO-31 renal
[40] = tested on: SNB-19 CNS
[41] = tested on: NCI-H522 lung
[42] = tested on: SNB-75 CNS
[43] = tested on: NCI-H23 lung
[44] = tested on: 786-0 renal
[45] = tested on: HCT-15 colon
[46] = tested on: SK-MEL-28 melanoma
[47] = tested on: MOLT-4 leukemia
[48] = tested on: A498 renal
[49] = tested on: T-47D breast
[50] = tested on: HL-60(TB) leukemia
[51] = tested on: UACC-257 melanoma
[52] = tested on: EKVX NSCLC
[53] = tested on: COLO 205 colon
[54] = tested on: SN12C renal
[55] = tested on: HT29 colon
[56] = tested on: OVCAR-4 ovarian
[57] = tested on: SK-OV-3 ovarian
[58] = tested on: HOP-92 NSCLC
[59] = tested on: NCI/ADR-RES ovarian

C[N+](C)([O-])CCCNc1ccnc2cccc([N+](=O)[O-])c12
TGI [1]: > 100 µM | TGI [2]: > 100 µM | TGI [3]: > 100 µM | TGI [4]: 97.5 µM | TGI [5]: > 100 µM | TGI [6]: > 100 µM | TGI [7]: 77.6 µM | TGI [8]: > 100 µM | TGI [9]: 45.8 µM | TGI [10]: 87.6 µM | TGI [11]: > 100 µM | TGI [12]: > 100 µM | TGI [13]: > 100 µM | TGI [14]: > 100 µM | TGI [15]: > 100 µM | TGI [16]: > 100 µM | TGI [17]: 44.1 µM | TGI [18]: 79.1 µM | TGI [19]: > 100 µM | TGI [20]: 33.4 µM | TGI [21]: > 100 µM | TGI [22]: > 100 µM | TGI [23]: 53.1 µM | TGI [24]: 31.3 µM | TGI [25]: 44.9 µM | TGI [26]: > 100 µM | TGI [27]: > 100 µM | TGI [28]: > 100 µM | TGI [29]: > 100 µM | TGI [30]: > 100 µM | TGI [31]: > 100 µM | TGI [32]: > 100 µM | TGI [33]: > 100 µM | TGI [34]: > 100 µM | TGI [35]: > 100 µM | TGI [36]: > 100 µM | TGI [37]: > 100 µM | TGI [38]: 57.6 µM | TGI [39]: > 100 µM | TGI [40]: > 100 µM | TGI [41]: 28 µM | TGI [42]: > 100 µM | TGI [43]: > 100 µM | TGI [44]: > 100 µM | TGI [45]: 61.6 µM | TGI [46]: > 100 µM | TGI [47]: 67.6 µM | TGI [48]: > 100 µM | TGI [49]: > 100 µM | TGI [50]: 54.1 µM | TGI [51]: > 100 µM | TGI [52]: > 100 µM | TGI [53]: 46.4 µM | TGI [54]: > 100 µM | TGI [55]: > 100 µM | TGI [56]: 55.3 µM | TGI [57]: > 100 µM

Cc1nc2c(=O)[nH]c3ccc(Cl)cc3c2o1
TGI [1]: > 100 µM | TGI [2]: > 100 µM | TGI [3]: > 100 µM | TGI [4]: > 100 µM | TGI [5]: > 100 µM | TGI [6]: > 100 µM | TGI [7]: > 100 µM | TGI [8]: > 100 µM | TGI [9]: > 100 µM | TGI [10]: > 100 µM | TGI [11]: > 100 µM | TGI [12]: > 100 µM | TGI [13]: > 100 µM | TGI [14]: > 100 µM | TGI [15]: > 100 µM | TGI [16]: > 100 µM | TGI [18]: > 100 µM | TGI [19]: > 100 µM | TGI [20]: > 100 µM | TGI [21]: > 100 µM | TGI [22]: > 100 µM | TGI [23]: > 100 µM | TGI [24]: > 100 µM | TGI [25]: > 100 µM | TGI [26]: > 100 µM | TGI [27]: > 100 µM | TGI [28]: > 100 µM | TGI [29]: > 100 µM | TGI [30]: > 100 µM | TGI [31]: > 100 µM | TGI [32]: > 100 µM | TGI [33]: > 100 µM | TGI [34]: > 100 µM | TGI [35]: > 100 µM | TGI [36]: > 100 µM | TGI [37]: > 100 µM | TGI [38]: > 100 µM | TGI [58]: > 100 µM | TGI [39]: > 100 µM | TGI [40]: > 100 µM | TGI [41]: > 100 µM | TGI [42]: > 100 µM | TGI [43]: > 100 µM | TGI [44]: > 100 µM | TGI [45]: > 100 µM | TGI [47]: > 100 µM | TGI [48]: > 100 µM | TGI [59]: > 100 µM | TGI [49]: > 100 µM | TGI [51]: > 100 µM | TGI [52]: > 100 µM | TGI [53]: > 100 µM | TGI [54]: > 100 µM | TGI [55]: > 100 µM | TGI [56]: > 100 µM | TGI [57]: > 100 µM

NS(=O)(=O)c1ccc(NC(=O)Nc2ccccc2F)cc1
TGI [2]: > 100 µM | TGI [3]: > 100 µM | TGI [4]: > 100 µM | TGI [5]: > 100 µM | TGI [6]: > 100 µM | TGI [7]: > 100 µM | TGI [8]: > 100 µM | TGI [9]: > 100 µM | TGI [10]: > 100 µM | TGI [11]: > 100 µM | TGI [12]: > 100 µM | TGI [13]: > 100 µM | TGI [14]: > 100 µM | TGI [15]: > 100 µM | TGI [16]: > 100 µM | TGI [17]: > 100 µM | TGI [18]: > 100 µM | TGI [19]: > 100 µM | TGI [20]: > 100 µM | TGI [21]: > 100 µM | TGI [22]: > 100 µM | TGI [23]: > 100 µM | TGI [24]: > 100 µM | TGI [25]: > 100 µM | TGI [26]: > 100 µM | TGI [27]: > 100 µM | TGI [28]: > 100 µM | TGI [29]: > 100 µM | TGI [30]: > 100 µM | TGI [31]: > 100 µM | TGI [32]: > 100 µM | TGI [33]: > 100 µM | TGI [34]: > 100 µM | TGI [35]: > 100 µM | TGI [36]: > 100 µM | TGI [37]: > 100 µM | TGI [38]: > 100 µM | TGI [58]: > 100 µM | TGI [39]: > 100 µM | TGI [40]: > 100 µM | TGI [41]: > 100 µM | TGI [42]: > 100 µM | TGI [43]: > 100 µM | TGI [44]: > 100 µM | TGI [45]: > 100 µM | TGI [46]: > 100 µM | TGI [47]: > 100 µM | TGI [48]: > 100 µM | TGI [59]: > 100 µM | TGI [49]: > 100 µM | TGI [50]: > 100 µM | TGI [51]: > 100 µM | TGI [52]: > 100 µM | TGI [53]: > 100 µM | TGI [54]: > 100 µM | TGI [55]: > 100 µM | TGI [56]: > 100 µM | TGI [57]: > 100 µM
